Results from US20030022814A1, “Method for treating or preventing depression” (priority 2002, published 2003).

Tests used:
emesis in ferrets = assay: Ferret emesis: PDE4 inhibitors and alpha-2 adrenoreceptor agonists/antagonists; settings: for emesis following administration of the drug itself: route not stated
[1] = system: PDE IV inhibitor-induced emesis in the ferret; assay: Ferret emesis: PDE4 inhibitors and neurokinin-1 receptor antagonists; format: in vivo; settings: NK-1 antagonist given before oral emetic dose of PDE IV inhibitor
Procedure: Ferret Emesis: PDE4 Inhibitors and Neurokinin-1 Receptor Antagonists
Intracerebroventricular (i.c.v.) administration was performed following a surgical implantation of an i.c.v. guide cannula. Under isoflurane anaesthesia, a 22 gauge stainless steel guide cannula (total length=20 mm) was lowered 9 mm below the surface of the skull, at the midline, 2 mm anterior to the cross-suture of the posterior edge of the skull. The tip of the guide cannula is then positioned 3-5 mm directly above the area postrema. The guide cannula was fixed to the skull using 2 screws and dental acrylic cement. The animals received antibiotic (Clamoxyl LA, SmithKline Beecham, Surrey, U.K.; 15 mg kg^−1 s.c.) and analgesic injections (Zenecarp, C-Vet Limited, Edmounds, U.K.; 5 mg kg^−1 s.c.) and were housed in individual cages. They were allowed at least 1 week to recover. Intracerebroventricular administration of drugs was performed by inserting an injection unit of 24-25 mm (level of the area postrema) or 27 mm (for brain tissue injection) length into the guide cannula and infusing 2 μl of the drug solution (or vehicle) over 1 minute. […]
Anti-emetic agents ondansetron (3 mg kg^−1 i.p.), and neurokinin-1 receptor antagonists (3 mg kg^−1 i.p. or s.c.) were administered 30 minutes prior to an oral challenge with an emetic dose of selected PDE IV inhibitors. […] The emetic response was monitored as described earlier. […]

## CS(=O)(=O)NCCN1C(=O)NC[C@]12CCN1CCc3c(oc4ccccc34)[C@@H]1C2 [MK-467]
Emesis in ferrets
  emesis following administration of the drug itself: Emesis was also recorded

## CN1CC[C@]2(CCN3CCc4c(oc5ccccc45)[C@@H]3C2)N(C)C1=O.Cl [MK-912]
Emesis in ferrets
  emesis following administration of the drug itself: Emesis was also recorded

## COc1ccccc1CN[C@H]1CCCN[C@H]1c1ccccc1 [CP-99,994]
[1]
  effect on PDE IV inhibitor-induced emesis: abolished

## Clc1cccc(Cl)c1N=C1NCCN1 [clonidine]
Emesis in ferrets; 250 μg kg−1 pre-treatment, CT-2450 30 mg kg−1 p.o., all animals treated
  emesis induced by CT-2450: abolished
Emesis in ferrets; 250 μg kg−1 pre-treatment, R-rolipram 3 mg kg−1 p.o.
  animals with complete protection against R-rolipram-induced emesis: two out of three
Emesis in ferrets; 250 μg kg−1 pre-treatment, RS14203 1 mg kg−1 p.o.
  animals with complete protection against RS14203-induced emesis: five out of six
Emesis in ferrets; RS14203 1 mg kg−1 p.o. challenge
  latency of onset of RS14203-induced emesis: increased
Emesis in ferrets; RS14203 1 mg kg−1 p.o. challenge, clonidine 62.5-250 μg kg−1
  number of retches and vomits induced by RS14203: dose-dependently decreased

## COC(=O)[C@@H]1[C@H]2C[C@H]3c4[nH]c5ccccc5c4CCN3C[C@@H]2CC[C@@H]1O [yohimbine]
Emesis in ferrets; intraperitoneal injection
  emesis (retching and vomiting) induced by the drug itself: induced retching and vomiting in all ferrets treated
